These results are taken from US7005257B1, “Detection of antibiotic resistance in microorganisms” (priority 1998, dated 2006).

For experiment [1], the system named is H. pylori. The experiment can be described thus: MIC value of conventionally characterized H. pylori isolates (clarithromycin). Format: cell-based, Helicobacter pylori. On the set-up: MIC value: unit not given beside the values. The following applies: for MIC: Helicobacter pylori. An excerpt: Evaluating the MIC value determination by in-situ hybridization using conventionally characterized H. pylori isolates.

The subject of experiment [2] is P. acnes. On the set-up: key: HS, hypersensitive; R, resistant; S, sensitive. Conditions: cited from earlier work.
For experiment [3], the system named is M. intracellulare. Details: key: HS, hypersensitive; R, resistant; S, sensitive. The following applies: cited from earlier work.
Experiment [4] has as its system H. pylori. Details: key: HS, hypersensitive; R, resistant; S, sensitive. The following applies: cited from earlier work.
Experiment [5] concerns M. pneumoniae. On the set-up: key: HS, hypersensitive; R, resistant; S, sensitive. The following applies: cited from earlier work.
In experiment [6] the test system is E. coli. Details: key: HS, hypersensitive; R, resistant; S, sensitive. Conditions: cited from earlier work.
Experiment [7] has as its system Helicobacter. Conditions: cited from earlier work.
Experiment [8] deals with 23S rRNA. The following applies: protein-free 23S rRNA extracts (Noller et al., 1992); cited from earlier work.

Values after ≈ are worked out from the molar mass of the structure shown. Read-outs that look alike come from different tables or passages of the source.

Consider `CC[C@H]1OC(=O)[C@H](C)[C@@H](O[C@H]2C[C@@](C)(OC)[C@@H](O)[C@H](C)O2)[C@H](C)[C@@H](O[C@@H]2O[C@H](C)C[C@H](N(C)C)[C@H]2O)[C@](C)(OC)C[C@@H](C)C(=O)[C@H](C)[C@@H](O)[C@]1(C)O` [clarithromycin], for which the MIC value in experiment [1] (H. pylori strain FD591) is 16/32. The MIC in experiment [1] (H. pylori strain HH531) was 48 µg/mL (≈ 64.2 µM); in experiment [1] (H. pylori strain KJ472), 16 µg/mL (≈ 21.4 µM); in experiment [1] (H. pylori strain MC028), 24 µg/mL (≈ 32.1 µM); in experiment [1] (H. pylori strain MC132) it was 12 µg/mL (≈ 16 µM); in experiment [1] (H. pylori strain MC141), > 256 µg/mL; in experiment [1] (H. pylori strain MPS1726), > 256 µg/mL. Further, the results for the MIC in experiment [1] (H. pylori strain MPS1765), in experiment [1] (H. pylori strain MPS3137) and in experiment [1] (H. pylori strain MPS3286) were > 256 µg/mL, 96 µg/mL (≈ 128 µM) and > 256 µg/mL, respectively. Moreover, the Phenotype entry in experiment [2] (23S rRNA mutation A2058G) was “Cla^R, Ery^R”; in experiment [2] (23S rRNA mutation A2059G), “Cla^R, Ery^R”; in experiment [2] (23S rRNA mutation G2057A) it was “Cla^R, Ery^R”; in experiment [3] (23S rRNA mutation A2053C), “Cla^R”; in experiment [3] (23S rRNA mutation A2058G), “Cla^R”; in experiment [3] (23S rRNA mutation A2058U) it was “Cla^R”. Besides, the Phenotype result in experiment [4] (23S rRNA mutation A2053C), in experiment [4] (23S rRNA mutation A2053G) and in experiment [4] (23S rRNA mutation A2059G) was “Cla^R” throughout.

As to `CC[C@H]1OC(=O)[C@H](C)[C@@H](O[C@H]2C[C@@](C)(OC)[C@@H](O)[C@H](C)O2)[C@H](C)[C@@H](O[C@@H]2O[C@H](C)C[C@H](N(C)C)[C@H]2O)[C@](C)(O)C[C@@H](C)C(=O)[C@H](C)[C@@H](O)[C@]1(C)O` [erythromycin], the Phenotype result in experiment [2] (23S rRNA mutation A2058G) is “Cla^R, Ery^R”; in experiment [2] (23S rRNA mutation A2059G), “Cla^R, Ery^R”; in experiment [2] (23S rRNA mutation G2057A), “Cla^R, Ery^R”; in experiment [5] (23S rRNA mutation A2058G), “Ery^R”; in experiment [5] (23S rRNA mutation A2059G) it was “Ery^R”; in experiment [6] (23S rRNA mutation A2058G), “Ery^R”. The Phenotype entry in experiment [6] (23S rRNA mutation A2058U) was “Ery^R”; in experiment [6] (23S rRNA mutation C2611U) it was “Ery^RLin^RSgb^R”; in experiment [6] (23S rRNA mutation G2032A), “HS”; in experiment [6] (23S rRNA mutation G2032C), “HS”; in experiment [6] (23S rRNA mutation G2032U), “HS”; in experiment [6] (23S rRNA mutation G2057A) it was “Ery^R, Cam^R”.

Turning to `O=C([O-])c1ccccc1[O-].[Bi+3].[OH-]` [BSS], the “Effect on Helicobacter” value in experiment [7] is recorded as “bactericidal effect”.

For `O=C(N[C@H](CO)[C@H](O)c1ccc([N+](=O)[O-])cc1)C(Cl)Cl` [chloramphenicol], the Phenotype entry in experiment [6] (23S rRNA mutation A2503C) was “Cam^R”; in experiment [6] (23S rRNA mutation G2032A) it was “R”; in experiment [6] (23S rRNA mutation G2032C) it was “S”; in experiment [6] (23S rRNA mutation G2032U) it was “S”; in experiment [6] (23S rRNA mutation G2057A), “Ery^R, Cam^R”.

`CCC[C@@H]1C[C@@H](C(=O)N[C@@H]([C@H]2O[C@H](SC)[C@H](O)[C@@H](O)[C@H]2O)[C@@H](C)O)N(C)C1` [lincomycin]: in experiment [6] (23S rRNA mutation C2611U), the Phenotype entry is given as “Ery^RLin^RSgb^R”.

Turning to `CO[C@@H]1[C@@H](O[C@@H]2O[C@H](C)[C@@H](O[C@H]3C[C@@](C)(O)[C@@H](OC(=O)CC(C)C)[C@H](C)O3)[C@H](N(C)C)[C@H]2O)[C@@H](CC=O)C[C@@H](C)C(=O)/C=C/[C@@H]2O[C@@H]2C[C@@H](C)OC(=O)C[C@H]1OC(C)=O` [carbomycin], in experiment [8], the “Inhibition of in-vitro peptidyltransferase activity” value is reported as “able to inhibit”.
